According to patent publication US10383948B2, “Anti-cMet antibody drug conjugates and methods for their use” (AbbVie Inc., priority 2016, dated 2019):

Legend:
NCI-H820 = assay: Cytotoxicity assay (CellTiter-Glo, 6 days); type: cell-based, human; details: NCI-H820 lung cancer; relative to untreated control at ≤1 μg/mL in a six day proliferation
Protocol: (§1) Tumor cells were plated at 2000-5000 cells/well in 180 μL growth medium containing 10% FBS in 96-well plates, and cultured at 37° C. in a humidified incubator with 5% C02. The following day, titrations of antibodies or ADCs in 20 μL were added and cells were incubated for 6 days. Cell viability was determined using a CellTiter-Glo Luminescent Cell Viability Assay (Promega) according to the manufacturer's instructions.
as §1, with “of” for “of antibodies or”

A549 = assay: Cytotoxicity assay (CellTiter-Glo, 6 days); type: cell-based, human; details: A549 lung cancer; relative to untreated control at ≤1 μg/mL in a six day proliferation
Protocol: as §1, with “instructions. A non-binding, irrelevant negative control ADC conjugated to MMAE was also included in all assays to confirm that cell killing was antigen dependent.” for “instructions.”
as §1, with “of” for “of antibodies or”, “instructions. A non-binding, irrelevant negative control ADC conjugated to MMAE was also included in all assays to confirm that cell killing was antigen-dependent.” for “instructions.”

EBC-1 = assay: Cytotoxicity assay (CellTiter-Glo, 6 days); type: cell-based, human; details: EBC-1 lung cancer; relative to untreated control at ≤1 μg/mL in a six day proliferation
Protocol: as §1, with “instructions. A non-binding, irrelevant negative control ADC conjugated to MMAE was also included in all assays to confirm that cell killing was antigen dependent.” for “instructions.”
as §1, with “of” for “of antibodies or”, “instructions. A non-binding, irrelevant negative control ADC conjugated to MMAE was also included in all assays to confirm that cell killing was antigen-dependent.” for “instructions.”

Hs746T = assay: Cytotoxicity assay (CellTiter-Glo, 6 days); type: cell-based, human
Protocol: as §1, with “instructions. A non-binding, irrelevant negative control ADC conjugated to MMAE was also included in all assays to confirm that cell killing was antigen dependent.” for “instructions.”
as §1, with “of” for “of antibodies or”, “instructions. A non-binding, irrelevant negative control ADC conjugated to MMAE was also included in all assays to confirm that cell killing was antigen-dependent.” for “instructions.”

KP4 = assay: Cytotoxicity assay (CellTiter-Glo, 6 days); type: cell-based, human; details: KP4 pancreatic cancer; relative to untreated control at ≤1 μg/mL in a six day proliferation
Protocol: as §1, with “instructions. A non-binding, irrelevant negative control ADC conjugated to MMAE was also included in all assays to confirm that cell killing was antigen dependent.” for “instructions.”
as §1, with “of” for “of antibodies or”, “instructions. A non-binding, irrelevant negative control ADC conjugated to MMAE was also included in all assays to confirm that cell killing was antigen-dependent.” for “instructions.”

NCI-H1573 = assay: Cytotoxicity assay (CellTiter-Glo, 6 days); type: cell-based, human; details: NCI-H1573 lung cancer
Protocol: as §1, with “instructions. A non-binding, irrelevant negative control ADC conjugated to MMAE was also included in all assays to confirm that cell killing was antigen dependent.” for “instructions.”
as §1, with “of” for “of antibodies or”, “instructions. A non-binding, irrelevant negative control ADC conjugated to MMAE was also included in all assays to confirm that cell killing was antigen-dependent.” for “instructions.”

NCI-H1650 = assay: Cytotoxicity assay (CellTiter-Glo, 6 days); type: cell-based, human; details: NCI-H1650 lung cancer; relative to untreated control at ≤1 μg/mL in a six day proliferation
Protocol: as §1, with “instructions. A non-binding, irrelevant negative control ADC conjugated to MMAE was also included in all assays to confirm that cell killing was antigen dependent.” for “instructions.”
as §1, with “of” for “of antibodies or”, “instructions. A non-binding, irrelevant negative control ADC conjugated to MMAE was also included in all assays to confirm that cell killing was antigen-dependent.” for “instructions.”

NCI-H441 = assay: Cytotoxicity assay (CellTiter-Glo, 6 days); type: cell-based, human; details: NCI-H441 lung cancer; relative to untreated control at ≤1 μg/mL in a six day proliferation
Protocol: as §1, with “instructions. A non-binding, irrelevant negative control ADC conjugated to MMAE was also included in all assays to confirm that cell killing was antigen dependent.” for “instructions.”
as §1, with “of” for “of antibodies or”, “instructions. A non-binding, irrelevant negative control ADC conjugated to MMAE was also included in all assays to confirm that cell killing was antigen-dependent.” for “instructions.”

SW48 = assay: Cytotoxicity assay (CellTiter-Glo, 6 days); type: cell-based, human; details: SW48 colorectal cancer; relative to untreated control at ≤1 μg/mL in a six day proliferation
Protocol: as §1, with “instructions. A non-binding, irrelevant negative control ADC conjugated to MMAE was also included in all assays to confirm that cell killing was antigen dependent.” for “instructions.”
as §1, with “of” for “of antibodies or”, “instructions. A non-binding, irrelevant negative control ADC conjugated to MMAE was also included in all assays to confirm that cell killing was antigen-dependent.” for “instructions.”

U87MG = assay: Cytotoxicity assay (CellTiter-Glo, 6 days); type: cell-based, human; details: U-87MG glioblastoma; relative to untreated control at ≤1 μg/mL in a six day proliferation
Protocol: as §1, with “instructions. A non-binding, irrelevant negative control ADC conjugated to MMAE was also included in all assays to confirm that cell killing was antigen dependent.” for “instructions.”
as §1, with “of” for “of antibodies or”, “instructions. A non-binding, irrelevant negative control ADC conjugated to MMAE was also included in all assays to confirm that cell killing was antigen-dependent.” for “instructions.”

[1] = tested on: EBC-1 ABT-700R xenograft tumors; assay: ABT-700-refractory xenograft efficacy; type: in vivo, mice; details: EBC-1, ABT-700 followed by ABBV-399; FIG. 12C
cMet+ NSCLC = assay: Phase 1 monotherapy in cMet+ NSCLC, best response; type: in vivo, human
Protocol: A dose of 2.7 mg/kg was chosen for dose-expansion based primarily on safety and tolerability. For enrollment in this phase of the study, NSCLC subjects were screened for cMet overexpression using an IHC assay utilizing the CONFIRM anti-total cMet (SP44) Rabbit Monoclonal Primary Antibody kit purchased from Ventana (REF #790-4430). Tissue samples were scored by determining the percentages of target tissue cells staining at various intensity levels of low to high, i.e. IHC score of 0, 1+, 2+ or 3+ or an H-score of 0 to 149, 150-224, or 225-300. The scoring can be done either manually or via the aid of a computer. Details of the IHC assay and scoring are described in Example 17.

NSCLC = assay: Phase 1b combination with erlotinib; type: in vivo, human; details: ABBV-399 2.7 mg/kg once every 21 days plus erlotinib 150 mg orally every day
Text: ABBV-399 will be combined with standard doses of erlotinib, cetuximab, bevacizumab or nivolumab starting at an ABBV-399 dose level below the MTD or MAD and then escalated no higher than MTD or MAD determined in the monotherapy dose-escalation/expansion. Dose limiting toxicity definitions will apply to the dose-escalation portion of each Combination.

NSCLC adenocarcinoma = assay: Phase 1 overall response versus H score; type: in vivo, human; details: IHC scores of 225 or greater
Text: (§2) The IHC score was obtained using the protocol described in Example 17.

[2] = tested on: NSCLC squamous cell carcinoma; assay: Phase 1 overall response versus H score; type: in vivo, human; details: three patients, 2.7 mg/kg once every 3 weeks, IHC scores between 150 to 224
Text: as §2

[3] = tested on: Hs746T gastric cancer xenografts; assay: Hs746T xenograft efficacy
Protocol: Female SCID, SCID-Beige and nude mice were obtained from Charles River (Wilmington, Mass.) and housed at ten mice per cage. The body weight upon arrival was 20-22 g. Food and water were available ad libitum. Mice were acclimated to the animal facilities for a period of at least one week prior to commencement of experiments. Animals were tested in the light phase of a 12-hr light: 12-hr dark schedule (lights on at 06:00 hours).
Each experimental group included 8-10 animals.
Tumor volumes are depicted as mean±S.E.M.

With “ABBV-399: ADC comprised of the cMet targeting antibody ABT-700 conjugated to MMAE through a valine citrulline (vc) linker” the “Maximal Killing” value (NCI-H820) was 87%, the “Maximal Killing” value (A549) was 22% and the “Maximal Killing” value (EBC-1) was 96%. The “Maximal Killing” value (Hs746T; Hs746T gastric cancer, relative to untreated control at ≤1 μg/mL in a six day proliferation) was 87%, the “inhibition of proliferation” value (Hs746T; MET-amplified Hs746T gastric cancer cells, FIG. 4) was “inhibited proliferation” and the “Maximal Killing” value (KP4) was 53%. For the same substance, the “Maximal Killing” value (NCI-H1573; relative to untreated control at ≤1 μg/mL in a six day proliferation) was 18%, the IC50 (NCI-H1573; read-out: ABBV-399 IC50, cell proliferation assay, Table 7B) was 18 nM and the “Maximal Killing” value (NCI-H1650) was 13%. The “Maximal Killing” value (NCI-H441) was 56%, the “Maximal Killing” value (SW48) was 0% and the “Maximal Killing” value (U87MG) was 30%. The “tumor response” value [1] was “remained sensitive”, the radiographic progressive disease (cMet+ NSCLC; 2/16 treated patients) was 12.5% and the partial responses (cMet+ NSCLC; 3/16 treated patients) was 19%. For the same substance, the stable disease (cMet+ NSCLC; 6/16 treated patients) was 37.5%, the “patients with partial response” value (NSCLC) was 2/6 and the “patients with progressive disease (new lesions)” value (NSCLC) was 1/6. The “response” value (NSCLC adenocarcinoma; four patients, 2.7 mg/kg Q3W and erlotinib) was “partial responses”, the “response” value (NSCLC adenocarcinoma; two patients, once every two weeks) was “either a partial response or a complete response” and the “response” value [2] was “partial responses”. The “in vivo activity, comparison” value ([3]; ABT-700 every seven days, ABBV-399 every four days, dose-dependent, FIG. 11A) was “more active than ABT-700 alone” and the “tumor response” value ([3]; tumors relapsed after ABT-700 treatment, FIG. 12A) was “regression”.
